Test system: CLL cells
Conditions: freshly isolated CLL cells

## COc1cc2c(cc1O)CC[C@@H]1[C@@H]2CC[C@]2(C)[C@@H](O)CC[C@@H]12 [2-ME, 2-methoxyestradiol]
At 10 μM, 72 hours
  percent cytotoxicity: 71%
read-out: effective dose for 50% killing (ED50), incubated 72 hours
  EC50: 7.5 µM

— patent publication US8980569B2, “Chronic lymphocytic leukemia prognosis and treatment” (Duke University, priority 2007, dated 2015)
